US12415770B2, “Modulators of liver receptor homologue 1 (LRH-1) and uses” (Emory University, priority 2017, dated 2025)
“Also recorded” adds a separate entry of the source. One block for each compound: values may come before it.

Assays:
[1] = cited from earlier work
LRH-1 = target: T1, LRH-1 (Homo sapiens, UniProt O00482); experiment: Luciferase reporter assay (SHP-luc) in HeLa cells transfected with full-length LRH-1; type: cell-based
T1 construct: The transfected plasmids included full-length LRH-1 in a pCI vector; expressed in transfected cells; host or cells: HeLa
T1 sequence (O00482 whole entry): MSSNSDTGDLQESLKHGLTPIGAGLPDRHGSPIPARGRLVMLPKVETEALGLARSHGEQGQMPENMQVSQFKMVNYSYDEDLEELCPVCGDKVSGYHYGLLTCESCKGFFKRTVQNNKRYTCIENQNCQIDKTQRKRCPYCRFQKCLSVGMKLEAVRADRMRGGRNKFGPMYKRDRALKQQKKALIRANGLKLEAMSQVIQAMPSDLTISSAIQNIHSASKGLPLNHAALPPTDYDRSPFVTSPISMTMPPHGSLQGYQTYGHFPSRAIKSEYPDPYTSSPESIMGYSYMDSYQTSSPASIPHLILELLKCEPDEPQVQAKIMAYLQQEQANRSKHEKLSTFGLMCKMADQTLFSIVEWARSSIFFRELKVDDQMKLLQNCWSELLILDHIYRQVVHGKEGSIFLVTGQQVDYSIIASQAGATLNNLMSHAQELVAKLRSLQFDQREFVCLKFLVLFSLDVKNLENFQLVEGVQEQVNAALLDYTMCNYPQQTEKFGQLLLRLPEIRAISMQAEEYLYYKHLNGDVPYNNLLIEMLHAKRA
Description: EC50 and Relative Activity values were calculated from luciferase reporter assays.

LRH-1 LBD = target: T2, LRH-1 LBD (Homo sapiens, UniProt O00482); experiment: Thermofluor (DSF) assay, purified LRH-1 LBD-His protein; type: binding
T2 construct: LRH-1 LBD (residues 299-541) in the pMSC7 vector was expressed in BL21 (DE3) pLysS E. coli; made in house; host or cells: E. coli BL21 (DE3) pLysS
T2 sequence (O00482 299-541): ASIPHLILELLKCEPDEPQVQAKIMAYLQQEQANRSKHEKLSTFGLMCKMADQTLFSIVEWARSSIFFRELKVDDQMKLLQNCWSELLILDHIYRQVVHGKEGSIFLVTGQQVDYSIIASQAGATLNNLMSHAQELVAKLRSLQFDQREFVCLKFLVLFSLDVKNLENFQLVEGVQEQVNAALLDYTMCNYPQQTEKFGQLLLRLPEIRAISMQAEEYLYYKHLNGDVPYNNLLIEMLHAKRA
How it was run: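 Purified His-tagged LRH-1 LBD (0.2 mg/ml) was incubated overnight at 4° C with 50 μM compound (1% DMSO final), then SYPRO orange was added. Samples were heated at 0.5° C per minute. Tm came from Boltzmann fits after subtracting no-protein baseline fluorescence.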

H390A-LRH-1 = H390A-LRH-1 (Homo sapiens, UniProt O00482, H390A); experiment: Luciferase reporter assay (SHP-luc), H390A mutant LRH-1; conditions: His-390 mutated to alanine
Sequence of H390A-LRH-1 (O00482 whole entry H390A): as the sequence (O00482 whole entry) above, with H390A counted along it

[2] = diabetic mice fed DLPC, mouse models of insulin resistance

SMILES: CCCCCCCCCCCC(=O)OC[C@H](COP(=O)([O-])OCC[N+](C)(C)C)OC(=O)CCCCCCCCCCC [DLPC, dilauroyl-phosphatidylcholine]
- bile acid levels ([1]; DLPC treatment, mouse): increases bile acid levels
- hepatic triglycerides and serum glucose ([1]; DLPC treatment, mouse): lowers hepatic triglycerides and serum glucose
- circulating insulin, triglycerides, and free fatty acids ([1]; diabetic mice fed DLPC): reduced quantities
- glucose tolerance / glucose homeostasis [1, 2]: improves glucose homeostasis; also recorded: improved glucose tolerance
- hepatic fat accumulation / hepatic steatosis [1, 2]: decreases hepatic steatosis; also recorded: reduced hepatic fat accumulation

SMILES: CCC/C=C(\CCC)C1=C(c2ccccc2)[C@]2(Nc3ccccc3)CCC[C@@H]2C1 [GSK8470, reference compound]
- increase of LRH-1 activity compared with DMSO (LRH-1; WT LRH-1, highest dose): ~2.5 fold
- EC50 (LRH-1; WT LRH-1, text): ~4 µM
- stabilization of LRH-1-ligand complex / Tm shift (LRH-1 LBD; WT LRH-1): did not affect the melting profile
- activation of H390A-LRH-1 (H390A-LRH-1): completely unable to activate

- EC50 (LRH-1; HeLa cells, SHP-luc reporter, 24 hours, 0.03-30 μM): 5.1 µM
- Relative Efficacy (LRH-1; fold increase over baseline (DMSO-treated cells) relative to the fold increase induced by RJW100): 0.93
- ΔTm at 50 µM (LRH-1 LBD; 50 μM compound, relative to DLPC-bound LRH-1, read-out: ΔTm (mean +/− SEM) (° C.)): -1.7 °C
SMILES: C=C(c1ccccc1)C12CCC(O)C1CC(CCCCCCCCCCCOP(=O)([O-])OCC[N+](C)(C)C)=C2c1ccccc1 (stereo not drawn) [Compound 12g, 11-(6-exo-hydroxy-3-phenyl-3a-(1-phenylvinyl)-1,3a,4,5,6,6a-hexahydropentalen-2-yl)undecyl (2-(trimethylammonio)ethyl) phosphate]
